Data reported in patent US20230002324A1, “NAPHTHOQUINONE DERIVATIVES FOR TREATMENT OF OXIDATIVE STRESS DISORDERS” (PTC THERAPEUTICS, INC., priority 2019, published 2023).

How the values were obtained:
Type in all cases: cell-based
[1] = system: Q7 cells (ST HDH Q7/7; immortalized mouse striatal cells); assay: Q7 RSL3 challenge cell survival (rescue) assay; settings: 18 h, read-out: Q7 RSL3 Survival EC50
Description: (§1) In neuronal cells excess extracellular glutamate inhibits the cystine/glutamate antiporter leading to intracellular cysteine depletion, GSH depletion, reactive oxygen species (ROS) production and cell death, a phenomenon termed oxidative glutamate toxicity, oxytosis, or ferroptosis. […] Q7 cells (ST HDH Q7/7; immortalized mouse striatal cells) challenged with cystine-free media or the selective, irreversible GPX4 inhibitor, methyl (1S,3R)-2-(2-chloroacetyl)-1-(4-(methoxycarbonyl)phenyl)-2,3,4,9-tetrahydro-1H-pyrido[3,4-b]indole-3-carboxylate (hereafter referred to as RSL3), recapitulate this phenotype, as do normal human fibroblasts (NHF) challenged with RSL3. An initial screen was performed to identify compounds effective in rescuing Q7 and/or NHF cells from death resulting from cystine deprivation or RSL3 challenge. This method is further described in Yonezawa et al., J. Neurochem 67, 566-573 (1996), Li et al., J Neurosci., 23, 5816-5826 (2003), Yang and Stockwell, Chem Biol., 15: 234-45 (2008), and Yang et al., Cell 156, 317-331 (2014). See also Hinman A, Holst C R, Latham J C, et al. Vitamin E hydroquinone is an endogenous regulator of ferroptosis via redox control of 15-lipoxygenase. PLoS One. 2018; 13(8):e0201369. Published 2018 Aug. 15. doi:10.1371/journal.pone.0201369; and Kahn-Kirby A H, Amagata A, Maeder C I, et al. Targeting ferroptosis: A novel therapeutic strategy for the treatment of mitochondrial disease-related epilepsy. PLoS One. 2019; 14(3):e0214250. Published 2019 Mar. 28. doi:10.1371/journal.pone.0214250.
(§2) DMEM (Catalog no. 11995-040), DMEM without Cystine (Catalog no. 21013-024), DMEM without Glucose (Catalog A1443001), PBS (Phosphate buffered saline), Penicillin-streptomycin mix, L-Glutamine, Glucose, Phenol Red, and Pyruvate were purchased from ThermoFisher Scientific (Gibco). Fetal Bovine Serum was obtained from Mediatech, Inc., or Sigma Aldrich. Mouse striatum derived ST HDH Q7/7 (Q7) and normal human skin fibroblast (NHF, product number GM21811) cells were obtained from the Coriell Institute. Methionine and Vitamin K2 were purchased from Sigma Aldrich. RSL3 was synthesized as previously described (see e.g. US Patent Publication US2010/0081654). Cell Titer Glo 2.0 was purchased from Promega. Q7 cell culture medium (Q7 growth medium) was made by combining 50 mL Fetal Bovine Serum, 100 U/mL penicillin, and 100 microgram/mL streptomycin; DMEM was added to make the volume up to 500 mL. Assay medium for the Cystine Deprivation assay was prepared by combining 50 mL Fetal Bovine Serum, 100 U/mL penicillin, 100 microgram/mL streptomycin, 4 mM L-Glutamine, 1 mM Pyruvate and 30 mg/L Methionine; DMEM without Cystine was added to make the volume up to 500 mL. NHF cell culture medium (NHF growth medium) was made by combining 50 mL Fetal Bovine Serum, 100 U/mL penicillin, 100 microgram/mL streptomycin, 2.8 mL 20% Glucose solution (final concentration 6 mM), L-glutamine (final concentration 2 mM), phenol red (final concentration 15 mg/L); DMEM without Glucose was added to make the volume up to 500 mL. Assay medium for the RSL3 challenge assay was identical to Growth medium. While not in use during the course of the experiments, these solutions were stored at 4° C. The cells were grown in 150-cm^2 tissue culture-treated flasks. Every third or fourth day, the cells were sub-cultured by trypsinization and re-seeded at a cell density of 600,000 (Q7) or 300,000 (NHF) cells per flask.
(§3) Q7 or NHF cells were cultured routinely as described herein. For 384-well cell survival assays, cells were seeded in clear bottom, black wall 384-well tissue culture-treated polystyrene plates by re-suspending a cell suspension at a density of 50,000 cells/mL in growth medium, then dispensing 60 microliters of cell suspension per well using either an electronic multichannel pipette or a Multidrop™ Combi Reagent Dispenser (ThermoFisher Scientific), corresponding to 3,000 cells/well. […]

[2] = system: Q7 cells (ST HDH Q7/7; immortalized mouse striatal cells); assay: Q7 Cystine Deprivation cell survival (rescue) assay; settings: Q7 cells, cystine-free medium, 18 h, Cell Titer Glo, 50% relative viability vs Vitamin K2 (1 micromolar), read-out: Q7 Cystine Deprivation Survival EC50
Description: as §1, §2, §3

[3] = system: normal human fibroblasts (NHF, GM21811); assay: NHF GM21811 RSL3 challenge cell survival (rescue) assay; settings: Fibroblast, NHF cells, RSL3 2 micromolar, 48 h, Cell Titer Glo, read-out: NHF GM21811 RSL3 Survival EC50
Description: as §1, §2, §3

[4] = Q7 cells, RSL3 2 micromolar, Cell Titer Glo

Which EC50 [1, 4] does the source give for [2H]C([2H])([2H])C1=C(C([2H])([2H])c2ccc(C(F)(F)F)cn2)C(=O)c2ccccc2C1=O [Example 22, 2-(methyl-d3)-3-((5-(trifluoromethyl)pyridin-2-yl)methyl-d2)naphthalene-1,4-dione] here?
Its EC50 is under 50 nM.

With CC1=C(Cc2ccc(C(F)(F)F)cn2)C(=O)c2cc(C)ccc2C1=O [Example 42, 2,6-dimethyl-3-((5-(trifluoromethyl)pyridin-2-yl)methyl)naphthalene-1,4-dione] as the molecule, how does the EC50 [2] read?
The EC50 was under 50 nM.

What about the EC50 [3] of the same molecule?
Its EC50 is under 50 nM.

What does the source list for CC1=C(Cc2ccc(C(F)(F)F)cn2)C(=O)c2cc(C)c(C)cc2C1=O [Example 43, 2,6,7-trimethyl-3-((5-(trifluoromethyl)pyridin-2-yl)methyl)naphthalene-1,4-dione]?
EC50 [2]: 50 to 250 nM; EC50 [1, 4]: 250 to 1000 nM

Which results are given for CC1=C(Cc2ccc(C(F)(F)F)cn2)C(=O)c2ccc(F)cc2C1=O [Example 44, 6-fluoro-3-methyl-2-((5-(trifluoromethyl)pyridin-2-yl)methyl)naphthalene-1,4-dione]?
EC50 [2]: < 50 nM; EC50 [3]: < 50 nM

Which EC50 [2] does the source give for CC1=C(Cc2ccc(F)cn2)C(=O)c2cc(F)ccc2C1=O [Example 47, 6-fluoro-3-((5-fluoropyridin-2-yl)methyl)-2-methylnaphthalene-1,4-dione] here?
Its EC50 is under 50 nM.

What about the EC50 [1, 4] of the same molecule?
Its EC50 is under 50 nM.

Which results are given for CC1=C(Cc2ccc(C(F)(F)F)cn2)C(=O)c2cc(F)cc(F)c2C1=O [Example 49, 5,7-difluoro-3-methyl-2-((5-(trifluoromethyl)pyridin-2-yl)methyl)naphthalene-1,4-dione]?
EC50 [2]: < 50 nM; EC50 [1, 4]: < 50 nM

Which results are given for CC1=C(Cc2ccc(C(F)(F)F)cn2)C(=O)c2c(F)cc(F)cc2C1=O [Example 50, 5,7-difluoro-2-methyl-3-((5-(trifluoromethyl)pyridin-2-yl)methyl)naphthalene-1,4-dione]?
EC50 [2]: < 50 nM; EC50 [1, 4]: < 50 nM

CC1=C(Cc2ccc(C(F)(F)F)cn2)C(=O)c2cc(Cl)cc(Cl)c2C1=O [Example 58, 5,7-dichloro-3-methyl-2-[[5-(trifluoromethyl)-2-pyridyl]methyl]naphthalene-1,4-dione] was tested. Which EC50 [1] did it give?
Its EC50 is under 50 nM.

How did the EC50 [1, 4] turn out when CC1=C(Cc2ccc(C(F)(F)F)cn2)C(=O)c2ccc(Cl)cc2C1=O [Example 59, 6-chloro-3-methyl-2-[[5-(trifluoromethyl)-2-pyridyl]methyl]naphthalene-1,4-dione] was run?
Its EC50 is under 50 nM.

CC1=C(Cc2ccc(C(F)(F)F)cn2)C(=O)c2cc(F)c(F)cc2C1=O [Example 78, 6,7-difluoro-2-methyl-3-((5-(trifluoromethyl)pyridin-2-yl)methyl)naphthalene-1,4-dione] was tested. Which EC50 [1, 4] did it give?
Its EC50 is under 50 nM.

Which EC50 [1, 4] does the source give for CC1=C(Cc2ccc(C(F)(F)F)cn2)C(=O)c2ccc(F)c(F)c2C1=O [Example 80, 5,6-difluoro-3-methyl-2-((5-(trifluoromethyl)pyridin-2-yl)methyl)naphthalene-1,4-dione] here?
The EC50 was under 50 nM.

CCCC1=C(Cc2ccc(C(F)(F)F)c(C#N)n2)C(=O)c2c(F)ccc(F)c2C1=O [Example 85, 6-((5,8-difluoro-1,4-dioxo-3-propyl-1,4-dihydronaphthalen-2-yl)methyl)-3-(trifluoromethyl)picolinonitrile] was tested. Which EC50 [1, 4] did it give?
The EC50 was under 50 nM.

For CC1=C(Cc2ccc(C(F)(F)F)c(C#N)n2)C(=O)c2c(F)c(F)cc(F)c2C1=O [Example 130, 6-((5,7,8-trifluoro-3-methyl-1,4-dioxo-1,4-dihydronaphthalen-2-yl)methyl)-3-(trifluoromethyl)picolinonitrile], which EC50 [1, 4] is on record?
Its EC50 is over 1000 nM.

With CCC1=C(Cc2ccc(C(C)(F)F)cn2)C(=O)c2ccccc2C1=O [Example 137, 2-((5-(1,1-difluoroethyl)pyridin-2-yl)methyl)-3-ethylnaphthalene-1,4-dione] as the molecule, how does the EC50 [3] read?
Its EC50 is under 50 nM.

CCC1=C(Cc2ccc(OC(F)(F)F)cn2)C(=O)c2c(F)ccc(F)c2C1=O [Example 138, 2-ethyl-5,8-difluoro-3-((5-(trifluoromethoxy)pyridin-2-yl)methyl)naphthalene-1,4-dione] was tested. Which EC50 [3] did it give?
The EC50 was under 50 nM.

CCC1=C(Cc2ccc(C(F)(F)F)c(C)n2)C(=O)c2c(F)ccc(F)c2C1=O [Example 139, 2-ethyl-5,8-difluoro-3-((6-methyl-5-(trifluoromethyl)pyridin-2-yl)methyl)naphthalene-1,4-dione] was tested. Which EC50 [3] did it give?
The EC50 was under 50 nM.

Which EC50 [3] does the source give for CCC1=C(Cc2ccc(F)c(C)n2)C(=O)c2c(F)ccc(F)c2C1=O [Example 140, 2-ethyl-5,8-difluoro-3-((5-fluoro-6-methylpyridin-2-yl)methyl)naphthalene-1,4-dione] here?
Its EC50 is under 50 nM.

With CCC1=C(Cc2ccc(C(F)(F)C(F)(F)F)cn2)C(=O)c2c(F)ccc(F)c2C1=O [Example 141, 2-ethyl-5,8-difluoro-3-((5-(perfluoroethyl)pyridin-2-yl)methyl)naphthalene-1,4-dione] as the molecule, how does the EC50 [3] read?
The EC50 was under 50 nM.

Which EC50 [3] does the source give for CCC1=C(Cc2ccc(OC(F)(F)F)cn2)C(=O)c2c(F)cc(F)cc2C1=O [Example 142, 2-ethyl-5,7-difluoro-3-((5-(trifluoromethoxy)pyridin-2-yl)methyl)naphthalene-1,4-dione] here?
The EC50 was under 50 nM.

How did the EC50 [3] turn out when COc1cnc(CC2=C(C)C(=O)c3ccccc3C2=O)cc1C(F)(F)F [Example 145, 2-((5-methoxy-4-(trifluoromethyl)pyridin-2-yl)methyl)-3-methylnaphthalene-1,4-dione] was run?
The EC50 was under 50 nM.

For CCC1=C(Cc2cc(C)c(F)cn2)C(=O)c2ccccc2C1=O [Example 146, 2-ethyl-3-((5-fluoro-4-methylpyridin-2-yl)methyl)naphthalene-1,4-dione], which EC50 [3] is on record?
Its EC50 is under 50 nM.

With CCC1=C(Cc2cc(C(F)(F)F)c(OC)cn2)C(=O)c2ccccc2C1=O [Example 147, 2-ethyl-3-((5-methoxy-4-(trifluoromethyl)141yridine-2-yl)methyl)naphthalene-1,4-dione] as the molecule, how does the EC50 [3] read?
The EC50 was under 50 nM.

With CCC1=C(Cc2ccc(C(F)(F)C(F)(F)F)cn2)C(=O)c2ccccc2C1=O [Example 148, 2-ethyl-3-((5-(perfluoroethyl)142yridine-2-yl)methyl)naphthalene-1,4-dione] as the molecule, how does the EC50 [3] read?
Its EC50 is under 50 nM.

How did the EC50 [3] turn out when CCC1=C(Cc2cc(C(F)(F)F)c(C)cn2)C(=O)c2ccccc2C1=O [Example 149, 2-ethyl-3-((5-methyl-4-(trifluoromethyl)pyridin-2-yl)methyl)naphthalene-1,4-dione] was run?
Its EC50 is under 50 nM.

Which EC50 [3] does the source give for CC1=C(Cc2ccc(C(F)(F)F)c[n+]2[O-])C(=O)c2ccccc2C1=O [Example 150, 2-((3-methyl-1,4-dioxo-1,4-dihydronaphthalen-2-yl)methyl)-5-(trifluoromethyl)pyridine 1-oxide] here?
The EC50 was under 50 nM.

Which EC50 [3] does the source give for CCC1=C(Cc2ccc(C(F)(F)F)c(OC)n2)C(=O)c2c(F)ccc(F)c2C1=O [Example 152, 2-ethyl-5,8-difluoro-3-((6-methoxy-5-(trifluoromethyl)pyridin-2-yl)methyl)naphthalene-1,4-dione] here?
The EC50 was under 50 nM.

With CCC1=C(Cc2ccc(C(F)(F)F)c(O)n2)C(=O)c2c(F)ccc(F)c2C1=O [Example 153, 2-ethyl-5,8-difluoro-3-((6-hydroxy-5-(trifluoromethyl)pyridin-2-yl)methyl)naphthalene-1,4-dione] as the molecule, how does the EC50 [3] read?
Its EC50 is under 50 nM.
